This experiment deals with Porphyromonas gingivalis. The experiment in a line: minimum inhibitory concentration (MIC) assay against P. gingivalis. In kind it is cell-based. As for the experimental part: To determine the ability of the cannabinoid compounds described herein to reduce, or eliminate, P. gingivalis a minimum inhibitory concentration (“MIC”) assay was performed. The assay was performed by Charles River Laboratories International (Wilmington, Mass.) in accordance with industry standards.

Setting [1] is: Porphyromonas gingivalis; against P. gingivalis; Table 1; read-out: MIC.
Setting [2] is: Porphyromonas gingivalis; read-out: minimum inhibitory concentration (MIC) against P. gingivalis.
[3] abbreviates: Porphyromonas gingivalis, read-out: minimum inhibitory concentration (MIC) against P. gingivalis.

≈ marks a conversion by molar mass, not a printed value. Like-named read-outs stand apart in the source and are kept apart here. Where only a bound is given, the exact number is not on record here.

For `CCCCCc1cc2c(c(O)c1C(=O)O)-c1cc(C)ccc1C(C)(C)O2` [CBNA, cannabinolic acid], the “minimum inhibitory concentration (MIC) against P. gingivalis” value came to 3.125 µg/mL (≈ 8.82 µM). For the setting “against P. gingivalis; Table 1”, this compound gave an MIC of 3.125 µg/mL (≈ 8.82 µM).
For the compound `C=C(C)[C@@H]1CCC(C)=C[C@H]1c1c(O)cc(C)cc1O` [CBD-C1, Cannabidiorcol], the “minimum inhibitory concentration (MIC) against P. gingivalis” value worked out at 100 µg/mL (≈ 387 µM). For the setting “against P. gingivalis; Table 1”, this compound showed an MIC of 100 µg/mL (≈ 387 µM).
As for `CCCCCc1cc(O)c2c(c1)OC(C)(CCC=C(C)C)C=C2` (stereo not drawn) [CBC, cannabichromene], the MIC is, setting by setting: under setting [1], 1.56 µg/mL (≈ 4.96 µM); under setting [2], 1.56 µg/mL (≈ 4.96 µM).
In the case of `CCCc1cc(O)c(C/C=C(\C)CCC=C(C)C)c(O)c1` [CBGV, cannabigerivarin], the “minimum inhibitory concentration (MIC) against P. gingivalis” value came out at 3.125 µg/mL (≈ 10.8 µM). The compound further returned an MIC (against P. gingivalis; Table 1) of 3.125 µg/mL (≈ 10.8 µM).
In the case of `CCCCCc1cc(O)c2c(c1)OC1(C)CCC3C1C2C3(C)C` (stereo not drawn) [CBL, cannabicyclol], the MIC under setting [1] is greater than 200 µg/mL and the MIC under setting [2] was greater than 200 µg/mL.
As to `C=C(C)[C@@H]1CCC(C)=C[C@H]1c1c(O)cc(CCC)c(C(=O)O)c1O` [CBDVA, cannabidivarinic acid], the “minimum inhibitory concentration (MIC) against P. gingivalis” value amounted to 25 µg/mL (≈ 75.7 µM). For the same compound, the MIC (against P. gingivalis; Table 1) came to 25 µg/mL (≈ 75.7 µM).
Turning to `CCCCc1cc(O)c(CC=C(C)CCC=C(C)C)c(O)c1` [CBG-C4, cannabigerol butyl], the “minimum inhibitory concentration (MIC) against P. gingivalis” value is 3.125 µg/mL (≈ 10.3 µM). Besides, where the note is “against P. gingivalis; Table 1”, the MIC stood at 3.125 µg/mL (≈ 10.3 µM).
In the case of `CCCCCc1cc(O)c(C/C=C(\C)CCC=C(C)C)c(O)c1` [CBG, cannabigerol], the MIC is, setting by setting: under setting [3], less than 1 µg/mL; under setting [1], 0.78 µg/mL (≈ 2.46 µM).
On to `C=C(C)[C@@H]1CCC(C)=C[C@H]1c1c(O)cc(CCCCC)cc1O` [CBD, cannabidol], for which the “minimum inhibitory concentration (MIC) against P. gingivalis” value came out at 3.125 µg/mL (≈ 9.94 µM). This compound had an MIC (against P. gingivalis; Table 1) of 3.125 µg/mL (≈ 9.94 µM).
Consider `C=C(C)[C@@H]1CCC(C)=C[C@H]1c1c(O)cc(CC)cc1O` [CBD-C2, Cannabidol-C2], for which the “minimum inhibitory concentration (MIC) against P. gingivalis” value is 6.25 µg/mL (≈ 22.9 µM). Under “against P. gingivalis; Table 1”, this compound gave an MIC of 6.25 µg/mL (≈ 22.9 µM).
As for `CCCCCc1cc2c(c(O)c1C(=O)O)C=CC(C)(CCC=C(C)C)O2` (stereo not drawn) [CBCA, cannabichromenic acid], the “minimum inhibitory concentration (MIC) against P. gingivalis” value came out at 3.125 µg/mL (≈ 8.72 µM). Under “against P. gingivalis; Table 1”, this compound came in with an MIC of 3.125 µg/mL (≈ 8.72 µM).
With `CCCCc1cc(O)c(C/C=C(\C)CCC=C(C)C)c(O)c1C(=O)O` [CBGA-C4, cannabigerolic acid butyl], the “minimum inhibitory concentration (MIC) against P. gingivalis” value amounted to 6.25 µg/mL (≈ 18 µM). Where the note is “against P. gingivalis; Table 1”, this compound showed an MIC of 6.25 µg/mL (≈ 18 µM).
As to `CCCc1cc(O)c(C/C=C(\C)CCC=C(C)C)c(O)c1C(=O)O` [CBGVA, cannabigerovarinic acid], the “minimum inhibitory concentration (MIC) against P. gingivalis” value turned out to be 25 µg/mL (≈ 75.2 µM). Where the note is “against P. gingivalis; Table 1”, this compound came in with an MIC of 25 µg/mL (≈ 75.2 µM).
In the case of `C=C(C)[C@@H]1CCC(C)=C[C@H]1c1c(O)cc(CCCC)cc1O` [CBD-C4, cannabidol-C4], the “minimum inhibitory concentration (MIC) against P. gingivalis” value is 3.125 µg/mL (≈ 10.4 µM). The same compound gave an MIC (against P. gingivalis; Table 1) of 3.125 µg/mL (≈ 10.4 µM).
Regarding `C=C(C)[C@@H]1CCC(C)=C[C@H]1c1c(O)cc(CCC)cc1O` [CBDV, cannabidivarin], the MIC is, setting by setting: under setting [1], 3.12 µg/mL (≈ 10.9 µM); under setting [2], 3.12 µg/mL (≈ 10.9 µM).
`CCCCCc1cc(O)c(C/C=C(\C)CCC=C(C)C)c(O)c1C(=O)O` [CBGA, cannabigerolic acid]: the MIC by setting is: under setting [3], less than 1 µg/mL; under setting [1], no more than 0.097 µg/mL.
`C=C(C)[C@@H]1CCC(C)=C[C@H]1c1c(O)cc(CCCCC)c(C(=O)O)c1O` [CBDA, cannabidiolic acid]: the MIC reads like this: under setting [3], less than 1 µg/mL; under setting [1], 0.39 µg/mL (≈ 1.09 µM).
On to `CCCCCc1cc2c(c(O)c1C(=O)O)C1C3C(CCC3(C)O2)C1(C)C` (stereo not drawn) [CBLA, cannabicyclolic acid], for which the “minimum inhibitory concentration (MIC) against P. gingivalis” value was found to be 3.125 µg/mL (≈ 8.72 µM). The MIC (against P. gingivalis; Table 1) was 3.125 µg/mL (≈ 8.72 µM).
As to `CCCCCc1cc(O)c2c(c1)OC(C)(C)c1ccc(C)cc1-2` [CBN, cannabinol], the MIC stood at 3.12 µg/mL (≈ 10.1 µM) under setting [1] and 3.12 µg/mL (≈ 10.1 µM) under setting [2].
For (+)-cannabidiol [(+)-CBD], the MIC (against P. gingivalis; Table 1) is 0.78 µg/mL.

Values taken from patent publication US20230037975A1, “USE OF C[…] IN ORAL CARE COMPOSITIONS TO INHIBIT THE GROWTH OF P. GINGIVALIS” (Demetrix, Inc., priority 2021, published 2023).
